In PubChem BioAssay AID1259407 (Chemical Carcinogenesis Research Information System (CCRIS), 2018):
Calls of active or inactive are those of the source. No rule for the calls is given here.

Test system: CCRIS mutagenicity, Ames/micronucleus/aberration tests
Assay: CCRIS mutagenicity studies
[1] = Test System: AMES SALMONELLA TYPHIMURIUM, Strain/Indicator: TA97, Metabolic Activation: NONE, Method: PREINCUBATION
[2] = Test System: AMES SALMONELLA TYPHIMURIUM, Strain/Indicator: TA97, Metabolic Activation: RAT, LIVER, S-9, AROCLOR 1254 (30%), Method: PREINCUBATION
[3] = Test System: AMES SALMONELLA TYPHIMURIUM, Strain/Indicator: TA98, Metabolic Activation: HAMSTER, LIVER, S-9, AROCLOR 1254 (10%), Method: PREINCUBATION
[4] = Test System: AMES SALMONELLA TYPHIMURIUM, Strain/Indicator: TA98, Metabolic Activation: HAMSTER, LIVER, S-9, AROCLOR 1254 (30%), Method: PREINCUBATION
[5] = Test System: AMES SALMONELLA TYPHIMURIUM, Strain/Indicator: TA98, Metabolic Activation: NONE, Method: PREINCUBATION
[6] = Test System: AMES SALMONELLA TYPHIMURIUM, Strain/Indicator: TA98, Metabolic Activation: RAT, LIVER, S-9, AROCLOR 1254 (10%), Method: PREINCUBATION
[7] = Test System: AMES SALMONELLA TYPHIMURIUM, Strain/Indicator: TA98, Metabolic Activation: RAT, LIVER, S-9, AROCLOR 1254 (30%), Method: PREINCUBATION
[8] = Test System: AMES SALMONELLA TYPHIMURIUM, Strain/Indicator: TA100, Metabolic Activation: HAMSTER, LIVER, S-9, AROCLOR 1254 (10%), Method: PREINCUBATION
[9] = Test System: AMES SALMONELLA TYPHIMURIUM, Strain/Indicator: TA100, Metabolic Activation: HAMSTER, LIVER, S-9, AROCLOR 1254 (30%), Method: PREINCUBATION
[10] = Test System: AMES SALMONELLA TYPHIMURIUM, Strain/Indicator: TA100, Metabolic Activation: NONE, Method: PREINCUBATION
[11] = Test System: AMES SALMONELLA TYPHIMURIUM, Strain/Indicator: TA100, Metabolic Activation: RAT, LIVER, S-9, AROCLOR 1254 (10%), Method: PREINCUBATION
[12] = Test System: AMES SALMONELLA TYPHIMURIUM, Strain/Indicator: TA100, Metabolic Activation: RAT, LIVER, S-9, AROCLOR 1254 (30%), Method: PREINCUBATION
[13] = Test System: AMES SALMONELLA TYPHIMURIUM, Strain/Indicator: TA1535, Metabolic Activation: HAMSTER, LIVER, S-9, AROCLOR 1254 (10%), Method: PREINCUBATION
[14] = Test System: AMES SALMONELLA TYPHIMURIUM, Strain/Indicator: TA1535, Metabolic Activation: HAMSTER, LIVER, S-9, AROCLOR 1254 (30%), Method: PREINCUBATION
[15] = Test System: AMES SALMONELLA TYPHIMURIUM, Strain/Indicator: TA1535, Metabolic Activation: NONE, Method: PREINCUBATION
[16] = Test System: AMES SALMONELLA TYPHIMURIUM, Strain/Indicator: TA1535, Metabolic Activation: RAT, LIVER, S-9, AROCLOR 1254 (10%), Method: PREINCUBATION
[17] = Test System: AMES SALMONELLA TYPHIMURIUM, Strain/Indicator: TA1535, Metabolic Activation: RAT, LIVER, S-9, AROCLOR 1254 (30%), Method: PREINCUBATION
[18] = Test System: AMES SALMONELLA TYPHIMURIUM, Strain/Indicator: TA1537, Metabolic Activation: NONE, Method: PREINCUBATION
[19] = Test System: AMES SALMONELLA TYPHIMURIUM, Strain/Indicator: TA100, Metabolic Activation: NONE, Method: STANDARD PLATE

In the case of `N#CC(O)c1ccccc1` (stereo not drawn), the mutagenic call (Test System: AMES SALMONELLA TYPHIMURIUM, Strain/Indicator: TA97, Metabolic Activation: HAMSTER, LIVER, S-9, AROCLOR 1254 (10%), Method: PREINCUBATION) is reported as “inactive; negative”, the mutagenic call (Test System: AMES SALMONELLA TYPHIMURIUM, Strain/Indicator: TA97, Metabolic Activation: HAMSTER, LIVER, S-9, AROCLOR 1254 (30%), Method: PREINCUBATION) is reported as “inactive; negative” and the mutagenic call [1] is reported as “inactive; negative”. For the same compound, the mutagenic call (Test System: AMES SALMONELLA TYPHIMURIUM, Strain/Indicator: TA97, Metabolic Activation: RAT, LIVER, S-9, AROCLOR 1254 (10%), Method: PREINCUBATION) was “inactive; negative”, the mutagenic call [2] was “inactive; negative” and the mutagenic call [3] was “inactive; negative”. The mutagenic call [4] was “inactive; negative”, the mutagenic call [5] was “inactive; negative” and the mutagenic call [6] was “inactive; negative”. The mutagenic call [7] was “inactive; negative”, the mutagenic call [8] was “inactive; negative” and the mutagenic call [9] was “inactive; negative”. For the same compound, the mutagenic call [10] was “inactive; negative”, the mutagenic call [11] was “inactive; negative” and the mutagenic call [12] was “inactive; negative”. The mutagenic call [13] was “inactive; negative”, the mutagenic call [14] was “inactive; negative” and the mutagenic call [15] was “inactive; negative”. For the same compound, the mutagenic call [16] was “inactive; negative” and the mutagenic call [17] was “inactive; negative”.
With `COc1ccc(N=[N+]([O-])c2ccc(OC)cc2)cc1` the mutagenic call (Test System: AMES SALMONELLA TYPHIMURIUM, Strain/Indicator: TA97, Metabolic Activation: HAMSTER, LIVER, S-9, AROCLOR 1254 (5%), Method: PREINCUBATION) was “inactive; negative”, the mutagenic call (Test System: AMES SALMONELLA TYPHIMURIUM, Strain/Indicator: TA97, Metabolic Activation: HAMSTER, LIVER, S-9, AROCLOR 1254 (10 OR 30%), Method: PREINCUBATION) was “active; positive” and the mutagenic call [1] was “inactive; negative”. The mutagenic call (Test System: AMES SALMONELLA TYPHIMURIUM, Strain/Indicator: TA97, Metabolic Activation: RAT, LIVER, S-9, AROCLOR 1254 (5 OR 10%), Method: PREINCUBATION) was “active; positive”, the mutagenic call [2] was “inactive; negative” and the mutagenic call [4] was “inactive; negative”. For the same compound, the mutagenic call [5] was “inactive; negative”, the mutagenic call [7] was “inactive; negative” and the mutagenic call [9] was “inactive; negative”. For the same compound, the mutagenic call [10] was “inactive; negative”, the mutagenic call [12] was “inactive; negative” and the mutagenic call [14] was “inactive; negative”. The mutagenic call [15] was “inactive; negative”, the mutagenic call [17] was “inactive; negative” and the mutagenic call (Test System: AMES SALMONELLA TYPHIMURIUM, Strain/Indicator: TA1537, Metabolic Activation: HAMSTER, LIVER, S-9, AROCLOR 1254 (5 OR 10%), Method: PREINCUBATION) was “inactive; negative”. For the same compound, the mutagenic call (Test System: AMES SALMONELLA TYPHIMURIUM, Strain/Indicator: TA1537, Metabolic Activation: HAMSTER, LIVER, S-9, AROCLOR 1254 (30%), Method: PREINCUBATION) was “active; positive” and the mutagenic call [18] was “inactive; negative”.
`CN(C)C1Cc2cccc3cccc(c23)C1` was tested, and the mutagenic call (Test System: AMES SALMONELLA TYPHIMURIUM, Strain/Indicator: TA97, Metabolic Activation: NONE, Method: STANDARD PLATE) was “inactive; negative”, the mutagenic call (Test System: AMES SALMONELLA TYPHIMURIUM, Strain/Indicator: TA97, Metabolic Activation: RAT, LIVER, S-9, AROCLOR 1254, Method: STANDARD PLATE) was “inactive; negative” and the mutagenic call (Test System: AMES SALMONELLA TYPHIMURIUM, Strain/Indicator: TA98, Metabolic Activation: NONE, Method: STANDARD PLATE) was “inactive; negative”. The mutagenic call (Test System: AMES SALMONELLA TYPHIMURIUM, Strain/Indicator: TA98, Metabolic Activation: RAT, LIVER, S-9, AROCLOR 1254, Method: STANDARD PLATE) was “active; positive”, the mutagenic call [19] was “inactive; negative” and the mutagenic call (Test System: AMES SALMONELLA TYPHIMURIUM, Strain/Indicator: TA100, Metabolic Activation: RAT, LIVER, S-9, AROCLOR 1254, Method: STANDARD PLATE) was “inactive; negative”. The mutagenic call (Test System: AMES SALMONELLA TYPHIMURIUM, Strain/Indicator: TA102, Metabolic Activation: NONE, Method: STANDARD PLATE) was “inactive; negative”, the mutagenic call (Test System: AMES SALMONELLA TYPHIMURIUM, Strain/Indicator: TA102, Metabolic Activation: RAT, LIVER, S-9, AROCLOR 1254, Method: STANDARD PLATE) was “inactive; negative” and the mutagenic call (Test System: AMES SALMONELLA TYPHIMURIUM, Strain/Indicator: TA1535, Metabolic Activation: NONE, Method: STANDARD PLATE) was “inactive; negative”. For the same compound, the mutagenic call (Test System: AMES SALMONELLA TYPHIMURIUM, Strain/Indicator: TA1535, Metabolic Activation: RAT, LIVER, S-9, AROCLOR 1254, Method: STANDARD PLATE) was “inactive; negative”.
`CCCCCCCC/C=C/CCCCCCCC(=O)OCCOCC(OCCO)C1OCC(OCCO)C1OCCO` (stereo not drawn) was tested, and the mutagenic call [3] was “inactive; negative”, the mutagenic call [5] was “inactive; negative” and the mutagenic call [6] was “inactive; negative”. For the same compound, the mutagenic call [8] was “inactive; negative”, the mutagenic call [10] was “inactive; negative” and the mutagenic call [11] was “inactive; negative”. The mutagenic call [13] was “inactive; negative”, the mutagenic call [15] was “inactive; negative” and the mutagenic call [16] was “inactive; negative”. The mutagenic call (Test System: AMES SALMONELLA TYPHIMURIUM, Strain/Indicator: TA1537, Metabolic Activation: HAMSTER, LIVER, S-9, AROCLOR 1254 (10%), Method: PREINCUBATION) was “inactive; negative”, the mutagenic call [18] was “inactive; negative” and the mutagenic call (Test System: AMES SALMONELLA TYPHIMURIUM, Strain/Indicator: TA1537, Metabolic Activation: RAT, LIVER, S-9, AROCLOR 1254 (10%), Method: PREINCUBATION) was “inactive; negative”.
`CC(=O)ON(OCc1ccc(Br)cc1)C(=O)c1ccccc1` was tested, and the mutagenic call [19] was “active; positive” and the mutagenic call (Test System: AMES SALMONELLA TYPHIMURIUM, Strain/Indicator: TA100, Metabolic Activation: RAT, S-9, AROCLOR, Method: STANDARD PLATE) was “active; positive”.
With `C[C@H]1C[C@@]23CCC4C[C@](C)(C(=O)O)CC[C@@]4(C)[C@@H]2CC[C@]1(O)C3` (stereo partly drawn) the mutagenic call (Test System: AMES SALMONELLA TYPHIMURIUM, Strain/Indicator: TM677, Metabolic Activation: RAT, LIVER, S-9, AROCLOR 1254, Method: PREINCUBATION) was “inactive; negative”.
With `O=C1c2cc(O)cc(O)c2C(=O)c2c1cc1c(c2O)[C@@H]2C=CO[C@@H]2O1` the mutagenic call (Test System: UDS RODENT HEPATOCYTES, Strain/Indicator: THY INCORP, Metabolic Activation: NONE, Method: AUTORADIOGRAPHY) was “active; positive”.
